{"source": "patent US7825256B2", "about": "“Inducible nitric oxide synthase dimerization inhibitors” (Kalypsys, Inc., priority 2004, dated 2010)", "target": "T1, heNOS (Homo sapiens, UniProt P29474)", "T1 construct": "expressed in transfected cells; host or cells: HEK293", "T1 sequence (P29474 2-1203 limits assumed)": "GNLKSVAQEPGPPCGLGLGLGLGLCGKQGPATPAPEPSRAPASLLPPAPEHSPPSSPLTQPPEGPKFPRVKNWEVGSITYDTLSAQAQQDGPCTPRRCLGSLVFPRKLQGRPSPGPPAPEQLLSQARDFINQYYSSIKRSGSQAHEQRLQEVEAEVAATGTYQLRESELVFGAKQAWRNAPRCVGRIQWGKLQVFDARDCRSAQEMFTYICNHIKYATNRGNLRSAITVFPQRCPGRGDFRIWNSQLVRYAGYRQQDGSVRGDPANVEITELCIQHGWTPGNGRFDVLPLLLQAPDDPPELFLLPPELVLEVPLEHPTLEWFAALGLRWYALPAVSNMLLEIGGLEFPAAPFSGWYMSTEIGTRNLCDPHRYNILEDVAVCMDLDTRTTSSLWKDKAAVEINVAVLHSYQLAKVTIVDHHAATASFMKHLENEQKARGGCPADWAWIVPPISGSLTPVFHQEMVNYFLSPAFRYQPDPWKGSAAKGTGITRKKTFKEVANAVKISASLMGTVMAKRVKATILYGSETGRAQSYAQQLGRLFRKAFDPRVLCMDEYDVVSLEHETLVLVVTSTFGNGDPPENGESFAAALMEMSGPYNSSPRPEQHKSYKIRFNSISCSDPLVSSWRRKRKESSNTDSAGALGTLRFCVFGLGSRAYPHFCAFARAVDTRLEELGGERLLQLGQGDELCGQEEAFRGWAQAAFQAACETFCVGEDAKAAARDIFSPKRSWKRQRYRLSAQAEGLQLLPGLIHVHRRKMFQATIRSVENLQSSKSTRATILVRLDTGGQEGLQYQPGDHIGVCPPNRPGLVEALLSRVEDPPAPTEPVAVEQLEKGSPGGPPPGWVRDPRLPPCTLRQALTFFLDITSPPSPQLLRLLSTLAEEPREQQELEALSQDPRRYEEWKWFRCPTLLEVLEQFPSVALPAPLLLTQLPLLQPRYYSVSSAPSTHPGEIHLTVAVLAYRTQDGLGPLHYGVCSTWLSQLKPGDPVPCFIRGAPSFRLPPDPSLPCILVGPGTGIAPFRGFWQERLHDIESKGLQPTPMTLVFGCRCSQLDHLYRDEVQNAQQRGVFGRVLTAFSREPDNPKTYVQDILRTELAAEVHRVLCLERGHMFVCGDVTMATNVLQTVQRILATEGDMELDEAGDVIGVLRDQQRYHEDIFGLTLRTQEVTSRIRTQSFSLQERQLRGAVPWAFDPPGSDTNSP", "assay": "DAN assay, heNOS expressed in transiently transfected HEK293 cells", "format": "cell-based", "conditions": "HEK293 cells transiently transfected with heNOS", "from_the_text": "The source of nitric oxide synthase (NOS) enzyme can be generated in several ways including induction of endogenous iNOS using cytokines and/or lipopolysaccharide (LPS) in various cell types known in the art. Alternatively, the gene encoding the enzyme can be cloned and the enzyme can be generated in cells via heterologous expression from a transient or stable expression plasmid with suitable features for protein expression as are known in the art. Enzymatic activity (nitric oxide production) is calcium independent for iNOS, while the constitutive NOS isoforms, nNOS and eNOS, become active with the addition of various cofactors added to cellular media or extract as are well known in the art. Enzymes specified in Table 1 were expressed in HEK293 cells transiently transfected with the indicated NOS isoform.\nA major metabolic pathway for nitric oxide is to nitrate and nitrite, which are stable metabolites within tissue culture, tissue, plasma, and urine (S Moncada, A Higgs, N Eng J Med 329, 2002 (1993)).\nThe level of nitrate or nitrite in the specimen can be quantified by any method known in the art which provides adequate sensitivity and reproducibility. A variety of protocols have also been described for detecting and quantifying nitrite and nitrate levels in biological fluids by ion chromatography (e.g., S A Everett et al., J. Chromatogr. 706, 437 (1995); J M Monaghan et al., J. Chromatogr. 770, 143 (1997)), high-performance liquid chromatography (e.g., M Kelm et al., Cardiovasc. Res. 41, 765 (1999)), and capillary electrophoresis (M A Friedberg et al., J. Chromatogr. 781, 491 (1997)). […] Using 2,3-diaminonaphthalene (“DAN”), researchers have developed a rapid, quantitative fluorometric assay that can detect from 10 nM to 10 μM nitrite and is compatible with a multi-well microplate format. […]\nA specimen can be processed prior to determination of nitrate or nitrite as required by the quantification method, or in order to improve the results, or for the convenience of the investigator. […]"}
{"smiles": "Cc1cc(C2CCCN2C(=O)CNCc2ccc3c(c2)OCO3)nc(-n2ccnc2)n1", "note": "(stereo not drawn) [Example 5]", "values": [{"measurement": "EC50", "value": "> 10", "unit": "µM"}]}
{"smiles": "Cc1cc(C2CCCN2C(=O)NCCc2ccc3c(c2)OCO3)nc(-n2ccnc2)n1", "note": "(stereo not drawn) [Example 4, 2-(2-Imidazol-1-yl-6-methyl-pyrimidin-4-yl)-pyrrolidine-1-carboxylic acid (2-benzo[1,3]dioxol-5-yl-ethyl)-amide]", "values": [{"measurement": "EC50", "value": "> 10", "unit": "µM"}]}
{"smiles": "CN(CCCNCc1ccc2c(c1)OCO2)c1nc(-n2ccnc2)ns1", "note": "[Example 2, N′-Benzo[1,3]dioxol-5-ylmethyl-N-(3-imidazol-1-yl-[1,2,4]thiadiazol-5-yl)-N-methyl-propane-1,3-diamine]", "values": [{"measurement": "EC50", "value": "> 10", "unit": "µM"}]}
